Experimental findings from patent publication US20230117034A1, “PYRAZOLOTRIAZINES” (Bayer Aktiengesellschaft, priority 2019, published 2023) are described below.

The subject of test [1] is MDA-MB-231, human breast cancer cells. Nature of the test: Proliferation assay MDA-MB-231 (crystal violet, 4 days). It is filed as cell-based. The settings on record: Homo sapiens, MDA-MB-231, 96 h, MDA-MB-231 cells, median, read-out: Prolif-MDA MB-231, IC50-[mol/l] (median). The method, then: Human tumour cells were originally obtained from the American Type Culture Collection (ATCC), or from the Deutsche Sammlung von Mikroorganismen und Zellkulturen (DSMZ, German Collection of Microorganisms and Cell Cultures). Cultivated tumour cells (CAL-120, human breast adenocarcinoma cells, DSMZ ACC-459; MDA-MB-231, human breast cancer cells, ATCC HTB-26) were plated at a density of 4,000 cells/well in a 96-well multititer plate in 200 microL of their respective growth medium supplemented 10% fetal calf serum. After 24 hours, the cells of one plate (zero-point plate) were stained with crystal violet (see below), while the medium of the other plates was supplemented with the test substances in various concentrations (0 micromol/L, as well as in the range of 0.01-10 micromol/L; the final concentration of the solvent dimethyl sulfoxide was adjusted to 0.1%) using a Tecan HP D300 Digital Dispenser. The cells were incubated for 4 days in the presence of test substances. Cell proliferation was determined by staining the cells with crystal violet: the cells were fixed by adding 20 microL/measuring point of an 11% glutaric aldehyde solution for 15 minutes at room temperature. After three washing cycles of the fixed cells with water, the plates were dried at room temperature. The cells were stained by adding 100 microL/measuring point of a 0.1% crystal violet solution (pH 3.0). After three washing cycles of the stained cells with water, the plates were dried at room temperature. The dye was dissolved by adding 100 microL/measuring point of a 10% acetic acid solution. The extinction was determined by photometry at a wavelength of 595 nm. The change of cell number, in percent, was calculated by normalization of the measured values to the extinction values of the zero-point plate (=0%) and the extinction of the untreated (0 μM) cells (=100%). The IC50 values (inhibitory concentration at 50% of maximal effect) were determined by means of a 4 parameter fit.

The next test addresses T1, CDK2/CycE (Homo sapiens, UniProt P24941).
T1 construct: purchased ProQinase GmbH (Freiburg, Germany); host or cells: insect cells (Sf9)
Nature of the test: CDK2/CycE kinase assay (TR-FRET, 2 mM ATP). It is filed as biochemical. The settings on record: 2 mM ATP (high ATP); median; read-out: CDK2/CyclinE, 2 mM ATP (high ATP), IC50 (median). The text has this: CDK2/CycE-inhibitory activity of compounds of the present invention was quantified employing the CDK2/CycE TR-FRET assay as described in the following paragraphs.
Recombinant fusion proteins of GST and human CDK2 and of GST and human CycE, expressed in insect cells (Sf9) and purified by Glutathion-Sepharose affinity chromatography, were purchase from ProQinase GmbH (Freiburg, Germany). As substrate for the kinase reaction biotinylated peptide biotin-Ttds-YISPLKSPYKISEG (C-terminus in amid form) was used which can be purchased e.g. form the company JERINI peptide technologies (Berlin, Germany).
For the assay 50 nanoL of a 100 fold concentrated solution of the test compound in DMSO was pipetted into a black low volume 384 well microtiter plate or a black 1536 well microtiter plate (both Greiner Bio-One, Frickenhausen, Germany), 2 microL of a solution of CDK2/CycE in aqueous assay buffer [50 millimol/L Tris/HCl pH 8.0, 10 millimol/L MgCl2, 1.0 millimol/L dithiothreitol, 0.1 millimol/L sodium ortho-vanadate, 0.01% (v/v) Nonidet-P40 (Sigma)] were added and the mixture was incubated for 15 min at 22° C. to allow pre-binding of the test compounds to the enzyme before the start of the kinase reaction. Then the kinase reaction was started by the addition of 3 microL of a solution of adenosine-tri-phosphate (ATP, 3.33 millimol/L=>final conc. in the 5 microL assay volume is 2 millimol/L) and substrate (1.25 micromol/L=>final conc. in the 5 microL assay volume is 0.75 micromol/L) in assay buffer and the resulting mixture was incubated for a reaction time of 25 min at 22° C. The concentration of CDK2/CycE was adjusted depending of the activity of the enzyme lot and was chosen appropriate to have the assay in the linear range, typical concentrations were in the range of 10 ng/ml. The reaction was stopped by the addition of 3 microL of a solution of TR-FRET detection reagents (0.333 micromol/L streptavidine-XL665 [Cisbio Bioassays, Codolet, France] and 1.67 nanomol/L anti-RB(pSer807/pSer8l 1)-antibody from BD Pharmingen [#558389] and 2 nanomol/L LANCE EU-W1024 labeled anti-mouse IgG antibody [Perkin-Elmer, product no. AD0077, as an alternative a Terbium-cryptate-labeled anti-mouse IgG antibody from Cisbio Bioassays can be used]) in an aqueous EDTA-solution (167 millimol/L EDTA, 0.2% (w/v) bovine serum albumin in 100 millimol/L HEPES pH 7.5).
The resulting mixture was incubated 1 h at 22° C. to allow the formation of complex between the phosphorylated biotinylated peptide and the detection reagents. Subsequently the amount of phosphorylated substrate was evaluated by measurement of the resonance energy transfer from the Eu-chelate to the streptavidine-XL. Therefore, the fluorescence emissions at 620 nm and 665 nm after excitation at 350 nm was measured in a TR-FRET reader, e.g. a Pherastar (BMG Labtechnologies, Offenburg, Germany) or a Viewlux (Perkin-Elmer). The ratio of the emissions at 665 nm and at […] was taken as the measure for the amount of phosphorylated substrate. The data were normalised (enzyme reaction without inhibitor=0% inhibition, all other assay components but no enzyme=100% inhibition).
In general terms: In TR-FRET formats the signal depends on donor and acceptor labels being close together.

As to `FC(F)(F)CN1CCN(c2nc(NCc3nc4ccccc4[nH]3)n3ncc(Br)c3n2)CC1` [Example 139, N-[(1H-benzimidazol-2-yl)methyl]-8-bromo-2-[4-(2,2,2-trifluoroethyl)piperazin-1-yl]pyrazolo[1,5-a][1,3,5]triazin-4-amine], the IC50 in test [1] was found to be 539 nM; on CDK2/CycE it was 14700 nM.
As for `Fc1cccc(-c2nnc(CNc3nc(N4C[C@H]5C[C@@H]4CO5)nc4c(Br)cnn34)[nH]2)c1` [Example 153, 8-bromo-N-{[5-(3-fluorophenyl)-4H-1,2,4-triazol-3-yl]methyl}-2-[(1R,4R)-2-oxa-5-azabicyclo[2.2.1]heptan-5-yl]pyrazolo[1,5-a][1,3,5]triazin-4-amine], the figures for the IC50 (in test [1]; on CDK2/CycE) were 24.4 nM and 1700 nM, respectively.
The matching figures for `C[C@H]1CN(c2nc(NCc3nnc(-c4cccc(F)c4)[nH]3)n3ncc(Br)c3n2)CCN1C` [Example 154, 8-bromo-2-[(3S)-3,4-dimethylpiperazin-1-yl]-N-{[5-(3-fluorophenyl)-4H-1,2,4-triazol-3-yl]methyl}pyrazolo[1,5-a][1,3,5]triazin-4-amine]: 26.2 nM and 4470 nM.
The matching figures for `CN1CCN(c2nc(NCc3nc4cc(F)ccc4[nH]3)n3ncc(C4CC4)c3n2)CC1` [Example 164, 8-cyclopropyl-N-[(5-fluoro-1H-benzimidazol-2-yl)methyl]-2-(4-methylpiperazin-1-yl)pyrazolo[1,5-a][1,3,5]triazin-4-amine]: 25.7 nM and greater than 20000 nM.
The matching figures for `CN1CCN(c2nc(NCc3nnc(-c4cccc(F)c4)[nH]3)n3ncc(Br)c3n2)CC1` [Example 136, 8-bromo-N-{[5-(3-fluorophenyl)-4H-1,2,4-triazol-3-yl]methyl}-2-(4-methylpiperazin-1-yl)pyrazolo[1,5-a][1,3,5]triazin-4-amine]: 26.4 nM and 3450 nM.
In the case of `NCCc1cccc2[nH]c(CNc3nc(N4CCOCC4)nc4c(Br)cnn34)nc12` [Example 112, N-{[7-(2-aminoethyl)-1H-benzimidazol-2-yl]methyl}-8-bromo-2-(morpholin-4-yl)pyrazolo[1,5-a][1,3,5]triazin-4-amine], the values for the IC50 (in test [1]; on CDK2/CycE) were 186 nM and 4340 nM, respectively.
As to `C[C@H]1CN(c2nc(NCc3nc4ccccc4[nH]3)n3ncc(Br)c3n2)CCN1C` [Example 132, N-[(1H-benzimidazol-2-yl)methyl]-8-bromo-2-[(3S)-3,4-dimethylpiperazin-1-yl]pyrazolo[1,5-a][1,3,5]triazin-4-amine], the IC50 in test [1] was 43 nM; at CDK2/CycE, 7430 nM.
Consider `O=S1(=O)CCN(c2nc(NCc3nc4ccccc4[nH]3)n3ncc(Br)c3n2)CC1` [Example 166, 4-(4-{[(1H-benzimidazol-2-yl)methyl]amino}-8-bromopyrazolo[1,5-a][1,3,5]triazin-2-yl)-1 lambda^6-thiomorpholine-1,1-dione], for which the IC50 was found to be 164 nM in test [1] and 4700 nM on CDK2/CycE.
The matching figures for `CN1CCN(c2nc(NCc3nc4c(F)c(F)ccc4[nH]3)n3ncc(C4CC4)c3n2)CC1` [Example 159, 8-cyclopropyl-N-[(4,5-difluoro-1H-benzimidazol-2-yl)methyl]-2-(4-methylpiperazin-1-yl)pyrazolo[1,5-a][1,3,5]triazin-4-amine]: 9.25 nM and greater than 20000 nM.
The matching figures for `CN1CCN(c2nc(NCc3nc4cc(F)ccc4[nH]3)n3ncc(Br)c3n2)CC1` [Example 134, 8-bromo-N-[(5-fluoro-1H-benzimidazol-2-yl)methyl]-2-(4-methylpiperazin-1-yl)pyrazolo[1,5-a][1,3,5]triazin-4-amine]: 11.7 nM and 12000 nM.
Taken in the same sequence, the figures for `C[C@@H]1CN(c2nc(NCc3nnc(-c4ccccc4)[nH]3)n3ncc(Br)c3n2)CCN1C.O=CO` [Example 130, 8-bromo-2-[(3R)-3,4-dimethylpiperazin-1-yl]-N-[(5-phenyl-4H-1,2,4-triazol-3-yl)methyl]pyrazolo[1,5-a][1,3,5]triazin-4-amine formate] were 35.6 nM and 8150 nM.
As for `Brc1cnn2c(NCc3nc4ccccc4[nH]3)nc(N3CCNCC3)nc12` [Example 128, N-[(1H-benzimidazol-2-yl)methyl]-8-bromo-2-(piperazin-1-yl)pyrazolo[1,5-a][1,3,5]triazin-4-amine], the figures for the IC50 (in test [1]; at CDK2/CycE) were 16 nM and 9630 nM, respectively.
As for `Cc1cccc2[nH]c(CNc3nc(N4CCOCC4)nc4c(Br)cnn34)nc12` [Example 150, 8-bromo-N-[(4-methyl-1H-benzimidazol-2-yl)methyl]-2-(morpholin-4-yl)pyrazolo[1,5-a][1,3,5]triazin-4-amine], the values for the IC50 (in test [1]; at CDK2/CycE) were 38.9 nM and 4360 nM, respectively.
`CC(C)c1cnn2c(NCc3nc4ccccc4[nH]3)nc(NCC(C)(C)O)nc12` [Example 10, 1-{[4-{[(1H-benzimidazol-2-yl)methyl]amino}-8-(propan-2-yl)pyrazolo[1,5-a][1,3,5]triazin-2-yl]amino}-2-methylpropan-2-ol]: the IC50 stood at 79.9 nM in test [1] and 874 nM on CDK2/CycE.
For the compound `C[C@@H]1CN(c2nc(NCc3nnc(-c4ccccc4)[nH]3)n3ncc(Br)c3n2)C[C@H](C)N1` [Example 127, 8-bromo-2-[(3R,5S)-3,5-dimethylpiperazin-1-yl]-N-[(5-phenyl-4H-1,2,4-triazol-3-yl)methyl]pyrazolo[1,5-a][1,3,5]triazin-4-amine], the IC50 in test [1] was 32.5 nM; at CDK2/CycE it was greater than 20000 nM.
Taken in the same sequence, the figures for `Brc1cnn2c(NCc3nc4ccccc4[nH]3)nc(N3C[C@@H]4CCCN[C@@H]4C3)nc12` [Example 146, N-[(1H-benzimidazol-2-yl)methyl]-8-bromo-2-[(4aS,7aS)-octahydro-6H-pyrrolo[3,4-b]pyridin-6-yl]pyrazolo[1,5-a][1,3,5]triazin-4-amine] were 43.3 nM and 7110 nM.
For the compound `C[C@H]1CCCCN1c1nc(NCc2nc3ccccc3[nH]2)n2ncc(Br)c2n1` [Example 141, N-[(1H-benzimidazol-2-yl)methyl]-8-bromo-2-[(2S)-2-methylpiperidin-1-yl]pyrazolo[1,5-a][1,3,5]triazin-4-amine], the IC50 is 37.8 nM in test [1] and 707 nM at CDK2/CycE.
For `CN1CCN(c2nc(NCc3nc4ccccc4[nH]3)n3ncc(Br)c3n2)CC1=O` [Example 131, 4-(4-{[(1H-benzimidazol-2-yl)methyl]amino}-8-bromopyrazolo[1,5-a][1,3,5]triazin-2-yl)-1-methylpiperazin-2-one], the IC50 in test [1] was 682 nM; at CDK2/CycE, greater than 20000 nM.
